Results taken from patent US5395827A, “ω-[2-(phosphonoalkyl)phenyl]-2-aminoalkanoic acids as antagonists of excitatory amino acid receptors” (priority 1993, dated 1995).
pKi: −log10 of the molar value.

Key:
[1] = biological target: kainic acid (KA) receptor; assay: Inhibition of KA-induced currents in rat brain mRNA-injected Xenopus oocytes; assay type: cell-based; conditions: for Ki, inhibition of KA-induced currents: Table I, Xenopus oocytes injected with rat brain mRNA, IC50 converted by Cheng-Prusoff equation; for pKi: read-out: Ki values (Table I)
Protocol: (§1) Defolliculated oocytes obtained from Xenopus laevis females were injected with 30-75 ng of poly (A^+) mRNA obtained from 21-day old male Sprague-Dawley rats. Oocytes are placed individually in […] of antibiotic-supplemented modified Barthes solution (MBS, containing in mM: NaCl, 88; KCl, 1.0; NaHCO3, 2.4; HEPES, 10; MgSO4, 0.82; Ca(NO3)2, 0.33) in 96-well sterile plates and cultured for 48-120 hours prior to experimentation. Oocytes are inspected every 24 hours at which time the bathing solution is replaced with fresh MBS.
(§2) For electrophysiological studies, oocytes are positioned in a small recording chamber ([…]) and superfused with antibiotic-free MBS supplemented with CaCl2 (final concentration=1.4 mM). For NMDA studies, MgSO4 is replaced with NaSO4 (0.55 mM). Oocytes are impaled with a single glass microelectrode, voltage-clamped at -60 to -70 mV, and perfused by gravity feed at a rate of 3-5 ml/min at room temperature. Drugs are dissolved in the perfusate (pH adjusted to 7.3-7.4) and perfused for 1-2 min or until the response has reached a plateau, followed by a 4 min perfusion in the absence of drug(s). Antagonists are coperfused with agonists. MBS used in NMDA assays is prepared from "glycine-free", deionized water.
(§3) Potencies to inhibit kainic acid-, AMPA- and NMDA/glycine-induced currents are determined from concentration-response curves. IC50 values and Hill coefficients are determined by analysis of indirect Hill plots. IC50 values are converted to Ki values for comparison purposes using the Cheng-Prusoff equation.

PTZ-induced seizures = assay: Protection against pentylenetetrazole (PTZ)-induced seizures; assay type: in vivo, mouse (male CF-1); conditions: for ED50: Mus musculus, ip, 0.5 h, i.p.; for ED50 / ED50 against PTZ-induced seizures, i.c.v.: 30 min before s.c. PTZ 85 mg/kg
Protocol: Animals were then placed in individual observation cages and monitored for 30 min for the appearance of clonic convulsions. Failure to observe a clonic convulsion lasting at least 5 sec during the observation period was considered evidence of anticonvulsant activity.
PTZ seizure studies were performed as described in the text.

AMPA receptor = assay: Inhibition of AMPA-induced currents in rat brain mRNA-injected Xenopus oocytes; assay type: cell-based; conditions: Table I; Xenopus oocytes injected with rat brain mRNA; IC50 converted by Cheng-Prusoff equation
Protocol: as §1, §2, §3

NMDA = conditions: U.S. Pat. No. 4,657,899; cited from earlier work
kainate receptors = conditions: U.S. Pat. No. 4,657,899, Table I on column 13; cited from earlier work
[2] = system: choline acetyltransferase (ChAT), marker for striatal cholinergic interneurons; assay: Kainic acid-induced striatal toxicity, choline acetyltransferase (ChAT) activity; assay type: in vivo, rat (male Sprague-Dawley)
Protocol: (§4) Kainic acid-induced lesion studies were performed using rats (male Sprague-Dawley, 200-250 g, Harlan Industries). Animals were anesthetized with Chloropent (1.5 ml/kg) and a cannula was inserted into the corpus striatum at the coordinates A 0.8, V 4.3, L 3.0 (bregma=0) using standard stereotaxic procedures. Compounds were dissolved in dH2 O and neutralized using dilute NaOH, and administered over a period of 2 min in a final volume of […]. Following an additional 2 min the cannula was withdrawn, the incision closed with woundclips, and the animals returned to their home cage for a 3 day recovery period. Kainic acid (10 nmoles) was used to induce striatal lesions. Compound XX (300 nmoles) was coadministered with kainic acid.
(§5) Following decapitation, the corpus striatum ipsiand contralateral to the injection were removed, immediately frozen on dry ice, and stored at -80° C. until assayed. The activities of choline acetyltransferase (ChAT) and glutamic acid decarboxylase (GAD), markers for striatal cholinergic and GABAergic interneurons, respectively, were determined using standard procedures to assess the extent of the lesion.
(§6) Ka-induced lesions were performed as described in the text. The results are expressed as the percentage of enzyme activity in the ipsilateral (injected) striatum relative to enzyme activity in the contralateral (uninjected) striatum. The values represent the mean+standard deviation of 4 (Example I) or 12 (vehicle) determinations.

[3] = system: glutamic acid decarboxylase (GAD), marker for striatal GABAergic interneurons; assay: Kainic acid-induced striatal toxicity, glutamic acid decarboxylase (GAD) activity; assay type: in vivo, rat (male Sprague-Dawley)
Protocol: as §4, §5, §6

[4] = coadministered (300 nmoles) with kainic acid (10 nmoles), intrastriatal, 3 day recovery, mean+standard deviation of 4
[5] = coadministration of kainic acid with Example I
[6] = intrastriatal injection of kainic acid alone (10 nmoles)

Structure (SMILES) | Ki, inhibition of KA-induced currents [1] | pKi (AMPA receptor) | pKi [1] | other results
Cc1cccc(C[C@H](N)C(=O)O)c1CCP(=O)(O)O [Example 15, 3-Methyl-2-(2-phosphonoethyl)phenylalanine] | > 100 µM | – | – | –
O=C(O)C1CN(CCCP(=O)(O)O)CCN1 (stereo not drawn) [CPP, reference compound] | – | – | – | ED50 (PTZ-induced seizures): 7.3 mg/kg; ED50 against PTZ-induced seizures, i.c.v. (PTZ-induced seizures; i.c.v.): 0.15 nmol
CCOC(=O)[C@@H](N)Cc1cc(C)ccc1CCP(=O)(O)O [Example 17, 5-Methyl-2-(2-phosphonoethyl)phenylalanine ethyl ester] | > 100 µM | – | – | –
CCc1ccc(CCP(=O)(O)O)c(C[C@H](N)C(=O)O)c1 [Example 2, 5-Ethyl-2-(2-phosphonoethyl)phenylalanine] | 17 µM | 4.30 | > 4.00 | –
NC(CCCc1ccccc1CP(=O)(O)O)C(=O)O (stereo not drawn) [2-amino-5-[2-phosphonomethylphenyl]pentanoic acid] | – | – | – | NMDA antagonism (in words) (NMDA): antagonists of NMDA; binding affinity for kainate receptors (in words) (kainate receptors): very low binding affinity
NC(Cc1ccccc1CCP(=O)(O)O)C(=O)O (stereo not drawn) [2-amino-3-[2-(2-phosphonoethyl)phenyl]propanoic acid] | – | – | – | NMDA antagonism (in words) (NMDA): antagonists of NMDA; binding affinity for kainate receptors (in words) (kainate receptors): very low binding affinity
Cc1ccc(CCP(=O)(O)O)c(C[C@H](N)C(=O)O)c1 [Example 1, 5-Methyl-2-(2-phosphonoethyl)phenylalanine] | 11 µM | 4.89 | > 4.00 | ChAT, % Activity of Contralateral Striatum [2, 4]: 98 ± 6%; reduction in ChAT activity [2, 5]: 2%; ED50 (PTZ-induced seizures): 98 mg/kg; potency relative to CPP against PTZ-induced seizures (PTZ-induced seizures; i.c.v.): ~2 times; ED50 against PTZ-induced seizures, i.c.v. (PTZ-induced seizures; i.c.v.): 0.09 nmol; protection against PTZ-induced seizures (in words) (PTZ-induced seizures; mouse, in vivo): dose-dependent protection against PTZ-induced seizures; effect against PTZ-induced seizures following systemic administration (in words) (PTZ-induced seizures; systemic (i.p.) administration, compared with CPP): effective following systemic administration, but was less potent than CPP; GAD, % Activity of Contralateral Striatum [3, 4]: 88 ± 17%; reduction in GAD activity [3, 5]: 12%
Cl.N[C@@H](Cc1cc(C2CCCCC2)ccc1CCP(=O)(O)O)C(=O)O [Example 12, 5-Cyclohexyl-2-(2-phosphonoethyl) phenylalanine hydrochloride] | 139 µM | – | – | –
N[C@@H](Cc1cc(Cl)ccc1CCP(=O)(O)O)C(=O)O [Example 4, 5-Chloro-2-(2-phosphonoethyl)phenylalanine] | 15 µM | 4.32 | > 4.00 | –
Cc1cc(C)c(CCP(=O)(O)O)c(C[C@H](N)C(=O)O)c1 [Example 7, 3,5-Dimethyl-2-(2-phosphonoethyl)phenylalanine] | 12 µM | 4.41 | – | –
C=C(C)[C@H]1CN[C@H](C(=O)O)[C@H]1CC(=O)O [kainic acid, reference compound] | – | – | – | reduction in ChAT activity [2, 6]: 68%; reduction in GAD activity [3, 6]: 55%
Cl.N[C@@H](Cc1cccc(-c2ccccc2)c1CCP(=O)(O)O)C(=O)O [Example 16, 3-Phenyl-2-(2-phosphonoethyl) phenylalanine hydrochloride] | 83 µM | – | – | –
N[C@@H](Cc1cc(-c2ccccc2)ccc1CCP(=O)(O)O)C(=O)O [Example 11, 5-Phenyl-2-(2phosphonoethyl)-phenylalanine] | 76 µM | – | > 4.00 | –
N[C@@H](Cc1cc(Br)ccc1CCP(=O)(O)O)C(=O)O [Example 3, 5-Bromo-2-(2-phosphonoethyl)phenylalanine] | 10 µM | 4.21 | > 4.00 | –
N[C@@H](Cc1cc(I)ccc1CCP(=O)(O)O)C(=O)O [Example 6, 5-Iodo-2-(2-phosphonoethyl)phenylalanine] | 3.6 µM | 4.80 | > 4.00 | –
NC(Cc1ccccc1CCCP(=O)(O)O)C(=O)O (stereo not drawn) [2-amino-3-[2-(3-phosphonopropyl)phenyl]propanoic acid] | – | – | – | NMDA antagonism (in words) (NMDA): antagonists of NMDA; binding affinity for kainate receptors (in words) (kainate receptors): very low binding affinity
NC(Cc1ccccc1CP(=O)(O)O)C(=O)O (stereo not drawn) [2-amino-3-[2-phosphonomethylphenyl]propanoic acid] | – | – | – | NMDA antagonism (in words) (NMDA): antagonists of NMDA; binding affinity for kainate receptors (in words) (kainate receptors): very low binding affinity
N[C@@H](Cc1cc(F)ccc1CCP(=O)(O)O)C(=O)O [Example 5, 5-Fluoro-2-(2-phosphonoethyl)phenylalanine] | 68 µM | 3.78 | > 4.00 | –
CC(C)(C)c1ccc(CCP(=O)(O)O)c(C[C@H](N)C(=O)O)c1 [Example 10, 5-t-Butyl-2-(2-phosphonoethyl)phenylalanine] | 29 µM | – | – | –
O=c1[nH]c2cc([N+](=O)[O-])c([N+](=O)[O-])cc2[nH]c1=O [DNQX, reference compound] | 0.1 µM | 6.60 | – | –
N[C@@H](Cc1ccc([N+](=O)[O-])cc1CCP(=O)(O)O)C(=O)O [Example 22, 4-Nitro-2-(2-phosphonoethyl)phenylalanine] | 13 µM | – | – | –
